Values joined by “and” are separate entries in the source; they are usually repeats but may differ in a detail not shown here. Equal entries are not always repeated.
Assays:
[1] = Quantitative whole-body autoradiography in Long-Evans rats; assay type: in vivo, rat; conditions: single p.o. 3 mg/kg, 14C-derived radioactivity
Protocol: Quantitative whole-body autoradiography (QWBA) assays were performed at QPS, LLC (Newark, DE) as described previously (Solon et al., 2002). Male Long-Evans (LE) rats (218–262 g, n=11, Hilltop Lab Animals, Inc., Scottdale, PA) were studied. All rats were administered a single p.o. dose of [^14C]-olinciguat at a target dose of 3 mg/kg and approximately 200 µCi/kg formulated in PEG 400 in water (60:40 v/v). Immediately prior to euthanasia, blood was obtained via cardiac puncture for plasma radioactivity determinations by liquid scintillation counting. At each timepoint (1, 2, 4, 8, 12, 24, 48, 72, 96, 168, and 504 h post-dose), one rat was euthanized by immersion in a hexane/solid carbon dioxide bath and frozen for at least 15 min for QWBA analysis. Each frozen rat carcass was embedded in a 2% carboxymethylcellulose matrix with a microtome stage at −20°C. Concentrations of radioactivity were used to determine the concentration of compound equivalents in each tissue and in plasma using the Specific Activity of 66.7 µCi/mg of [^14C]-olinciguat. Whole body sections for each rat were mounted on a cardboard backing, covered with thin plastic wrap, and exposed along with calibration standards of [^14C]-glucose at 10 different concentrations (0.00096 to 7.8 µCi/g) to a ^14C-sensitive phosphor imaging plate (Fuji Biomedical, Stamford, CT). Imaging plates were scanned using the Typhoon 9410 image acquisition system (GE/Molecular Dynamics, Sunnyvale, CA, USA). Radioactivity concentration in tissues was quantified by image densitometry using MCID image analysis software (v. 7.0, Interfocus Imaging Ltd) and a standard curve constructed from the integrated response (molecular dynamics counts/mm^2) and the nominal concentrations of [^14C]-glucose standards. Tissue concentration data were obtained for virtually all tissues (see Supplemental Materials). The concentrations of radioactivity were expressed as the microgram equivalents of [^14C]-olinciguat per gram of sample. An upper and lower limit of quantification, determined by using the radioactive concentration of the highest and lowest calibration standards divided by the specific activity of the test article in formulation, was applied to the data. Phoenix® WinNonLin® v.6.3 was used to determine PK parameters, including maximal concentration (Cmax) and area under the curve of all observed points (AUCall). Tissue:plasma AUCall ratios were determined.

normotensive Wistar rats = assay: Arterial hemodynamics by telemetry in normotensive Wistar rats; assay type: in vivo, rat
Protocol: (§1) The Dataquest A.R.T.™ acquisition and analysis system (Data Sciences International [DSI], St. Paul, MN) was employed to monitor and analyze hemodynamic data from conscious, freely moving rats surgically implanted with a telemetry pressure transmitter (PA-C40). Telemetry transmitter implantation was performed on rats under sterile conditions. Rats were anesthetized with isoflurane and body temperature was maintained with a heating pad during surgery. A laparotomy was performed to expose the abdominal aorta. The catheter tip of the telemetry transmitter was inserted into the abdominal aorta and secured with a 5-0 silk suture (Ethicon, Inc., Somerville, NJ). The abdominal incision was closed with uninterrupted suture (4-0 silk, Ethicon, Inc., Somerville, NJ) and the telemetry transmitter was placed in the abdominal cavity and secured to the abdominal wall. Approximately 100 µl of 0.25% marcaine was applied directly to the closed abdominal wall, and the skin was then closed with suture (4-0 Vicryl® absorbable, Ethicon, Inc., Somerville, NJ). Buprenorphine (0.05 mg/kg/day, subcutaneous [s.c.]) was administered immediately after the surgery for postoperative pain relief. After recovery from anesthesia, rats were returned to their home cages, placed on DSI receivers, and allowed a 5- to 14-day recovery period. Arterial hemodynamics were measured continuously and recorded throughout the study. For acute studies, analysis was based on hourly averages, for chronic studies, analysis was based on daily or weekly averages.
(§2) Spontaneously hypertensive rats (SHRs) (n=6, male, 230–250 g, 14 weeks of age) and Wistar rats (n=6, male, 230–250 g, 12 weeks of age) were implanted with telemetry transmitters as described above. Olinciguat was formulated as a suspension in a vehicle containing 0.5% methylcellulose and 0.2% Tween. Rats were p.o. dosed with a dosing volume of 5 ml/kg. […] Using plasma from tail vein, olinciguat plasma concentrations were determined at 1, 6, and 24 h post-dose on day 4 and reported as the mean from Wistar (n=3) and SHR (n=3). Hemodynamics were recorded hourly during a 24-h baseline period and over the first 3 days of dosing.
(§3) Maximum change from baseline of mean arterial pressure (MAP) was calculated using the 24-h pre-first dose average subtracted from the lowest MAP value recorded within 2 h following dosing. The 1-h post-dose change from baseline heart rate (HR) was calculated using the 3-h pre-first dose average subtracted from the 1-h post-dose average.
(§4) In the hemodynamic study in Wistar and SHR, hourly MAP data were analyzed using a repeated measures two-way ANOVA, with time and treatment group as independent variables. Significance at each timepoint was determined as compared to the vehicle control using a Dunnett's post-hoc test.

[2] = test system: spontaneously hypertensive rats (SHR); assay: Arterial hemodynamics by telemetry in spontaneously hypertensive rats; assay type: in vivo, rat
Protocol: as §1, §2, §3, §4

[3] = design: method as in Mittleman et al., 2017; conditions: healthy human subjects, ref Mittleman et al., 2017, cited from earlier work
[4] = 10 mg/kg p.o. QD, day 3, 10 mg/kg

- AUCall blood-to-plasma ratio [1]: 0.73
- tissue:plasma AUCall ratio, adrenal gland [1]: 2.41
- tissue:plasma AUCall ratio, cecum [1]: 4.63
- tissue:plasma AUCall ratio, esophagus [1]: 2.01
- tissue:plasma AUCall ratio, kidney cortex [1]: 13.6
- tissue:plasma AUCall ratio, kidney medulla [1]: 5.14
- tissue:plasma AUCall ratio, liver [1]: 50.3
- tissue:plasma AUCall ratio, remaining eight tissues (all four measured regions of the brain, spinal cord, bone, eye lens) [1]: ≤ 0.1
- tissue:plasma AUCall ratio, small intestine [1]: 27.5
- tissue:plasma AUCall ratio, urinary bladder [1]: 2.62
- tissue:plasma ratio, aorta [1]: 0.92
- tissue:plasma ratio, brown adipose [1]: 1.16
- tissue:plasma ratio, heart [1]: 0.84
- tissue:plasma ratio, lung [1]: 0.86
- tissue:plasma ratio, skeletal muscle [1]: 0.52
- tissue:plasma ratio, white adipose [1]: 0.67
Compound: NC(=O)[C@](O)(CNc1nc(-c2cc(-c3ccon3)n(Cc3ccccc3F)n2)ncc1F)C(F)(F)F [olinciguat, (R)-3,3,3-trifluoro-2-(((5-fluoro-2-(1-(2-fluorobenzyl)-5-(isoxazol-3-yl)-1H-pyrazol-3-yl)pyrimidin-4-yl)amino)methyl)-2-hydroxypropanamide]
- MAP vs vehicle-treated rats (normotensive Wistar rats; 1 mg/kg p.o. QD): not significantly different from vehicle at any time
- MAP vs vehicle-treated rats (normotensive Wistar rats; 3 mg/kg p.o. QD): lower only on the second and third day of dosing
- MAP vs vehicle-treated rats (normotensive Wistar rats; 10 mg/kg p.o. QD): lower on all 3 days of dosing
- maximum absolute change in MAP (normotensive Wistar rats; [4]): −11 ± 3 mmHg and −11^b mmHg
- MAP vs vehicle-treated rats ([2]; 1 mg/kg p.o. QD): only lower than vehicle-treated rats on the third day of dosing
- MAP vs vehicle-treated rats ([2]; 3 mg/kg p.o. QD, 6-h period following dosing on all 3 days): significantly lower than vehicle-treated rats
- MAP vs vehicle-treated rats ([2]; 10 mg/kg p.o. QD, 6-h period following dosing on all 3 days): significantly lower than vehicle-treated rats
- maximum absolute change in MAP [2, 4]: −26 ± 2 mmHg and −26^b mmHg
- terminal-phase half-life ([3]; repeat dosing with oral tablets): ~ 30 h
- renal clearance, percent of apparent total body clearance [CL/F] [3]: ≤ 0.3%

— publication PMC7156612, “Olinciguat, an Oral sGC Stimulator, Exhibits Diverse Pharmacology Across Preclinical Models of Cardiovascular, Metabolic, Renal, and Inflammatory Disease” (Frontiers in Pharmacology, 2020)
